Experimental findings from patent publication US9074014B2 (Ipsen Pharma S.A.S., priority 2008, dated 2015) are described below.

Where a SMILES comes first, the peptide text is derived from it. Where no end group is shown, it is not given here. [ ]: non-standard residue; d: D form. The star is where a group is joined. Ac6c = NC1(C(=O)O)CCCCC1; X1 = CCCN1C(=O)CC(*)C1=O; Ac5c = NC1(C(=O)O)CCCC1; Aib = CC(C)(N)C(=O)O Bounds are passed on as bounds.

Data set [1] in a line: Rat plasma half-life assay. It is filed as in vitro ADME. The note with it: rat plasma, 37° C., LC-MS; read-out: Rat Plasma T½ (converted). How it is done:
(§1) B. Human and Rat Plasma Half-Life Assay
(§2) 50 μL was removed at various times, like at 0, 1, 2, 3, 4, 8, 24, 32, 48, 56, 72 hours, mixed with 5 μL formic acid and 150 μL acetonitrile in a microcentrifuge tube, vertexed, and centrifuged for 10 minutes at 10K rpm. The supernatant was transferred to an injection vial and analyzed by LC-MS. The LC-MS system consisted of an API4000 mass spectrometer with an ESI probe. Positive ion mode and full scan detection were used. HPLC separation was carried out on a Luna 3μ C8 (2), 2×30 mm column with a gradient from 90% A to 90% B in 10 minutes at a flow rate of 0.3 ml/min. Buffer A was 1% formic acid in water and buffer B was 1% formic acid acetonitrile.

A short description of data set [2]: Human plasma half-life assay. It is filed as in vitro ADME. The note with it: human plasma, 37° C., LC-MS; read-out: Human Plasma T½ (converted). How it is done:
as §1, §2

`CC[C@H](C)[C@H](NC(=O)[C@H](CO)NC(=O)[C@H](Cc1ccc(O)cc1)NC(=O)[C@H](CC(=O)O)NC(=O)[C@H](CO)NC(=O)[C@@H](NC(=O)[C@H](Cc1ccccc1)NC(=O)C1(NC(=O)CNC(=O)[C@H](CCC(=O)O)NC(=O)C(C)(C)NC(=O)[C@@H](N)Cc2ccc(O)cc2)CCCC1)[C@@H](C)CC)C(=O)N[C@@H](C)C(=O)N[C@@H](CCSC)C(=O)N[C@@H](CC(=O)O)C(=O)N[C@@H](CCCCN)C(=O)N[C@H](C(=O)N[C@@H](Cc1c[nH]cn1)C(=O)N[C@@H](CCC(N)=O)C(=O)N[C@@H](CCC(N)=O)C(=O)N[C@@H](CC(=O)O)C(=O)N[C@@H](Cc1ccccc1)C(=O)N[C@H](C(=O)N[C@@H](CC(N)=O)C(=O)N[C@@H](Cc1c[nH]c2ccccc12)C(=O)N[C@@H](CC(C)C)C(=O)N[C@@H](CC(C)C)C(=O)N[C@@H](C)C(=O)N[C@@H](CCC(N)=O)C(=O)N[C@@H](CCCCN)C(N)=O)C(C)C)[C@@H](C)CC` [Example 11, (Aib^2, A5c^5)hGIP(1-30)-NH2]: the half-life at 0.1 mg/ml is more than 48 h in data set [1] and 44.4 h in data set [2].
Regarding `CC[C@H](C)[C@H](NC(=O)[C@H](CO)NC(=O)[C@H](Cc1ccc(O)cc1)NC(=O)[C@H](CC(=O)O)NC(=O)[C@H](CO)NC(=O)C1(NC(=O)[C@H](Cc2ccccc2)NC(=O)[C@@H](NC(=O)CNC(=O)[C@H](CCC(=O)O)NC(=O)C(C)(C)NC(=O)[C@@H](N)Cc2ccc(O)cc2)[C@@H](C)O)CCCC1)C(=O)N[C@@H](C)C(=O)N[C@@H](CCSC)C(=O)N[C@@H](CC(=O)O)C(=O)N[C@@H](CCCCN)C(=O)N[C@H](C(=O)N[C@@H](Cc1c[nH]cn1)C(=O)N[C@@H](CCC(N)=O)C(=O)N[C@@H](CCC(N)=O)C(=O)N[C@@H](CC(=O)O)C(=O)N[C@@H](Cc1ccccc1)C(=O)N[C@H](C(=O)N[C@@H](CC(N)=O)C(=O)N[C@@H](Cc1c[nH]c2ccccc12)C(=O)N[C@@H](CC(C)C)C(=O)N[C@@H](CC(C)C)C(=O)N[C@@H](C)C(=O)N[C@@H](CCC(N)=O)C(=O)N[C@@H](CCCCN)C(N)=O)C(C)C)[C@@H](C)CC` [Example 12, (Aib^2, A5c^7)hGIP(1-30)-NH2], the half-life at 0.1 mg/ml is more than 48 h in data set [1] and 20.5 h in data set [2].
For `CC[C@H](C)[C@H](NC(=O)[C@H](CCCCN)NC(=O)[C@H](CC(=O)O)NC(=O)[C@H](CCSC)NC(=O)[C@H](C)NC(=O)C1(NC(=O)[C@H](CO)NC(=O)[C@H](Cc2ccc(O)cc2)NC(=O)[C@H](CC(=O)O)NC(=O)[C@H](CO)NC(=O)[C@@H](NC(=O)[C@H](Cc2ccccc2)NC(=O)[C@@H](NC(=O)CNC(=O)[C@H](CCC(=O)O)NC(=O)C(C)(C)NC(=O)[C@@H](N)Cc2ccc(O)cc2)[C@@H](C)O)[C@@H](C)CC)CCCC1)C(=O)N[C@@H](Cc1c[nH]cn1)C(=O)N[C@@H](CCC(N)=O)C(=O)N[C@@H](CCC(N)=O)C(=O)N[C@@H](CC(=O)O)C(=O)N[C@@H](Cc1ccccc1)C(=O)N[C@H](C(=O)N[C@@H](CC(N)=O)C(=O)N[C@@H](Cc1c[nH]c2ccccc12)C(=O)N[C@@H](CC(C)C)C(=O)N[C@@H](CC(C)C)C(=O)N[C@@H](C)C(=O)N[C@@H](CCC(N)=O)C(=O)N[C@@H](CCCCN)C(N)=O)C(C)C` [Example 13, (Aib^2, A5c^12)hGIP(1-30)-NH2] (H-Y[Aib]EGTFISDYS[Ac5c]AMDKIHQQDFVNWLLAQK-NH2; N-terminus assumed), the half-life at 0.1 mg/ml in data set [1] was more than 48 h; in data set [2], 35.4 h.
The like results for `CC[C@H](C)[C@H](NC(=O)[C@H](CO)NC(=O)[C@H](Cc1ccc(O)cc1)NC(=O)[C@H](CC(=O)O)NC(=O)[C@H](CO)NC(=O)[C@@H](NC(=O)[C@H](Cc1ccccc1)NC(=O)[C@@H](NC(=O)C(C)(C)NC(=O)[C@H](CCC(=O)O)NC(=O)C(C)(C)NC(=O)[C@@H](N)Cc1ccc(O)cc1)[C@@H](C)O)[C@@H](C)CC)C(=O)N[C@@H](C)C(=O)N[C@@H](CCSC)C(=O)N[C@@H](CC(=O)O)C(=O)N[C@@H](CCCCN)C(=O)N[C@H](C(=O)N[C@@H](Cc1c[nH]cn1)C(=O)N[C@@H](CCC(N)=O)C(=O)N[C@@H](CCC(N)=O)C(=O)N[C@@H](CC(=O)O)C(=O)N[C@@H](Cc1ccccc1)C(=O)N[C@H](C(=O)N[C@@H](CC(N)=O)C(=O)N[C@@H](Cc1c[nH]c2ccccc12)C(=O)N[C@@H](CC(C)C)C(=O)N[C@@H](CC(C)C)C(=O)N[C@@H](C)C(=O)N[C@@H](CCC(N)=O)C(=O)N[C@@H](CCCCN)C(N)=O)C(C)C)[C@@H](C)CC` [Example 14, (Aib^2, 4)hGIP(1-30)-NH2] were, in that order, 48 h and 34.8 h.
Take `CC[C@H](C)[C@H](NC(=O)[C@H](CO)NC(=O)[C@H](Cc1ccc(O)cc1)NC(=O)[C@H](CC(=O)O)NC(=O)[C@H](CO)NC(=O)[C@@H](NC(=O)[C@H](Cc1ccccc1)NC(=O)C(C)(C)NC(=O)CNC(=O)[C@H](CCC(=O)O)NC(=O)C(C)(C)NC(=O)[C@@H](N)Cc1ccc(O)cc1)[C@@H](C)CC)C(=O)N[C@@H](C)C(=O)N[C@@H](CCSC)C(=O)N[C@@H](CC(=O)O)C(=O)N[C@@H](CCCCN)C(=O)N[C@H](C(=O)N[C@@H](Cc1c[nH]cn1)C(=O)N[C@@H](CCC(N)=O)C(=O)N[C@@H](CCC(N)=O)C(=O)N[C@@H](CC(=O)O)C(=O)N[C@@H](Cc1ccccc1)C(=O)N[C@H](C(=O)N[C@@H](CC(N)=O)C(=O)N[C@@H](Cc1c[nH]c2ccccc12)C(=O)N[C@@H](CC(C)C)C(=O)N[C@@H](CC(C)C)C(=O)N[C@@H](C)C(=O)N[C@@H](CCC(N)=O)C(=O)N[C@@H](CCCCN)C(N)=O)C(C)C)[C@@H](C)CC` [Example 15, (Aib^2, 5)hGIP(1-30)-NH2]: the half-life at 0.1 mg/ml was 46.5 h in data set [1] and 28.6 h in data set [2].
Taken in the same sequence, the figures for `CC[C@H](C)[C@H](NC(=O)[C@H](CO)NC(=O)[C@H](Cc1ccc(O)cc1)NC(=O)[C@H](CC(=O)O)NC(=O)[C@H](CO)NC(=O)C(C)(C)NC(=O)[C@H](Cc1ccccc1)NC(=O)[C@@H](NC(=O)CNC(=O)[C@H](CCC(=O)O)NC(=O)C(C)(C)NC(=O)[C@@H](N)Cc1ccc(O)cc1)[C@@H](C)O)C(=O)N[C@@H](C)C(=O)N[C@@H](CCSC)C(=O)N[C@@H](CC(=O)O)C(=O)N[C@@H](CCCCN)C(=O)N[C@H](C(=O)N[C@@H](Cc1c[nH]cn1)C(=O)N[C@@H](CCC(N)=O)C(=O)N[C@@H](CCC(N)=O)C(=O)N[C@@H](CC(=O)O)C(=O)N[C@@H](Cc1ccccc1)C(=O)N[C@H](C(=O)N[C@@H](CC(N)=O)C(=O)N[C@@H](Cc1c[nH]c2ccccc12)C(=O)N[C@@H](CC(C)C)C(=O)N[C@@H](CC(C)C)C(=O)N[C@@H](C)C(=O)N[C@@H](CCC(N)=O)C(=O)N[C@@H](CCCCN)C(N)=O)C(C)C)[C@@H](C)CC` [Example 16, (Aib^2, 7)hGIP(1-30)-NH2] were more than 48 h and 43.9 h.
For the compound `CC[C@H](C)[C@H](NC(=O)[C@H](CO)NC(=O)[C@H](Cc1ccc(O)cc1)NC(=O)C(C)(C)NC(=O)[C@H](CO)NC(=O)[C@@H](NC(=O)[C@H](Cc1ccccc1)NC(=O)[C@@H](NC(=O)CNC(=O)[C@H](CCC(=O)O)NC(=O)C(C)(C)NC(=O)[C@@H](N)Cc1ccc(O)cc1)[C@@H](C)O)[C@@H](C)CC)C(=O)N[C@@H](C)C(=O)N[C@@H](CCSC)C(=O)N[C@@H](CC(=O)O)C(=O)N[C@@H](CCCCN)C(=O)N[C@H](C(=O)N[C@@H](Cc1c[nH]cn1)C(=O)N[C@@H](CCC(N)=O)C(=O)N[C@@H](CCC(N)=O)C(=O)N[C@@H](CC(=O)O)C(=O)N[C@@H](Cc1ccccc1)C(=O)N[C@H](C(=O)N[C@@H](CC(N)=O)C(=O)N[C@@H](Cc1c[nH]c2ccccc12)C(=O)N[C@@H](CC(C)C)C(=O)N[C@@H](CC(C)C)C(=O)N[C@@H](C)C(=O)N[C@@H](CCC(N)=O)C(=O)N[C@@H](CCCCN)C(N)=O)C(C)C)[C@@H](C)CC` [Example 18, (Aib^2, 9)hGIP(1-30)-NH2] (H-Y[Aib]EGTFIS[Aib]YSIAMDKIHQQDFVNWLLAQK-NH2; N-terminus assumed), the values for the half-life at 0.1 mg/ml in data set [1] and in data set [2] were 44.4 h and 11.3 h, respectively.
As for `CC[C@H](C)[C@H](NC(=O)[C@H](CCCCN)NC(=O)[C@H](CC(=O)O)NC(=O)[C@H](CCSC)NC(=O)[C@H](C)NC(=O)[C@@H](NC(=O)C(C)(C)NC(=O)[C@H](Cc1ccc(O)cc1)NC(=O)[C@H](CC(=O)O)NC(=O)[C@H](CO)NC(=O)[C@@H](NC(=O)[C@H](Cc1ccccc1)NC(=O)[C@@H](NC(=O)CNC(=O)[C@H](CCC(=O)O)NC(=O)C(C)(C)NC(=O)[C@@H](N)Cc1ccc(O)cc1)[C@@H](C)O)[C@@H](C)CC)[C@@H](C)CC)C(=O)N[C@@H](Cc1c[nH]cn1)C(=O)N[C@@H](CCC(N)=O)C(=O)N[C@@H](CCC(N)=O)C(=O)N[C@@H](CC(=O)O)C(=O)N[C@@H](Cc1ccccc1)C(=O)N[C@H](C(=O)N[C@@H](CC(N)=O)C(=O)N[C@@H](Cc1c[nH]c2ccccc12)C(=O)N[C@@H](CC(C)C)C(=O)N[C@@H](CC(C)C)C(=O)N[C@@H](C)C(=O)N[C@@H](CCC(N)=O)C(=O)N[C@@H](CCCCN)C(N)=O)C(C)C` [Example 19, (Aib^2, 11)hGIP(1-30)-NH2] (H-Y[Aib]EGTFISDY[Aib]IAMDKIHQQDFVNWLLAQK-NH2; N-terminus assumed), the half-life at 0.1 mg/ml in data set [1] is more than 48 h; in data set [2], 27.2 h.
Regarding “Y[Aib]EGTF[Ac6c]SDYSIAMDKIHQQDFVNWLLAQKGKKNDWKHC(X1)ITQ-OH [Example 79, [Aib^2, A6c^7, Cys(Psu)^39]hGIP(1-42)-OH]”, in data set [1], the half-life at 0.1 mg/ml was 14.3 h.
